Values of other authors in patent US6087087A, “Treatment of hemoglobin with nitric oxide” (Yonetani; Takashi, priority 1998, dated 2000).
Where two headings read alike, the source gives them in different places.

Experiments:
[1] = tested on: blood of the rat; settings: rat treated with nitroglycerin
[2] = tested on: Hb in rats; settings: nitroglycerin-induced
[3] = tested on: Hb (hemoglobin)

Molecule | right shift of the O2 binding curve of blood [1] | α-nitrosylHb formed, of the total heme of Hb [2] | affinity of NO for Hb relative to CO [3] | affinity of NO for Hb relative to CO ([3]; listed as nitric oxide)
O=[N+]([O-])OCC(CO[N+](=O)[O-])O[N+](=O)[O-] [nitroglycerin] | approximately 10 torr | less than 2% |  | 
nitric oxide [NO] |  |  | > 10^3 fold | more than a thousand-fold higher affinity
